Results as given in patent US4684664A, “Derivatives of β-(4-isocyano-1,2,3,4-diepoxycyclopentyl) acrylic acid” (Kureha Kagaku Kogyo Kabushiki Kaisha, priority 1984, dated 1987).
In brackets after ≈: the same amount, converted by molar mass.

Experiments:
Format in all cases: cell-based
Salmonella typhi 901 = test: Antibacterial activity, agar-dilution MIC, organism No. 9; conditions: Salmonella enterica, TYPHI, read-out: Minimum Inhibitory Concentration
In short: (§1)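 Values come from agar-dilution plates prepared with bouillon agar; they represent the least specimen concentration (μg/ml of medium) giving inhibition.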

[1] = test system: Enterobacter aerogenes ATCC 13048; test: Antibacterial activity, agar-dilution MIC, organism No. 23; conditions: Klebsiella aerogenes, ATCC13048; Organism No. 23, bouillon-agar; read-out: Minimum Inhibitory Concentration
In short: as §1

[2] = test system: Staphylococcus aureus MS 353; test: Antibacterial activity, agar-dilution MIC, organism No. 3; conditions: Staphylococcus aureus, MS353; Organism No. 3, bouillon-agar; read-out: Minimum Inhibitory Concentration
In short: as §1

[3] = test system: Candida albicans IAM 4905; test: Antifungal activity, agar-dilution MIC, organism No. 29; conditions: Candida albicans, IAM4905; Organism No. 29, bouillon-agar; read-out: Minimum Inhibitory Concentration
In short: as §1

[4] = test system: Klebsiella pneumoniae PCI-602; test: Antibacterial activity, agar-dilution MIC, organism No. 7; conditions: Klebsiella pneumoniae, PCI602; Organism No. 7, bouillon-agar; read-out: Minimum Inhibitory Concentration
In short: as §1

[5] = test system: Salmonella paratyphi-A 1015; test: Antibacterial activity, agar-dilution MIC, organism No. 10; conditions: Salmonella enterica, PARATYPHI, read-out: Minimum Inhibitory Concentration
In short: as §1

[6] = test system: Streptococcus pyogenes IFO 3340; test: Antibacterial activity, agar-dilution MIC, organism No. 26; conditions: Streptococcus pyogenes, IFO3340; Organism No. 26, bouillon-agar; read-out: Minimum Inhibitory Concentration
In short: as §1

[7] = test system: Salmonella typhimurium IID 971; test: Antibacterial activity, agar-dilution MIC, organism No. 8; conditions: Salmonella enterica; Organism No. 8, bouillon-agar; read-out: Minimum Inhibitory Concentration
In short: as §1

[8] = test system: Proteus morganii IFO 3848; test: Antibacterial activity, agar-dilution MIC, organism No. 18; conditions: Morganella morganii, IFO3848; Organism No. 18, bouillon-agar; read-out: Minimum Inhibitory Concentration
In short: as §1

Proteus vulgaris OX-19 = test: Antibacterial activity, agar-dilution MIC, organism No. 20; conditions: Proteus vulgaris, OX19; Organism No. 20, bouillon-agar; read-out: Minimum Inhibitory Concentration
In short: as §1

[9] = test system: Aspergillus niger IFO 6342; test: Antifungal activity, agar-dilution MIC, organism No. 30; conditions: Aspergillus niger, IFO6342; Organism No. 30, bouillon-agar; read-out: Minimum Inhibitory Concentration
In short: as §1

[10] = test system: Staphylococcus aureus FDA 209PJc-1; test: Antibacterial activity, agar-dilution MIC, organism No. 1; conditions: Staphylococcus aureus, FDA209PJC1; Organism No. 1, bouillon-agar; read-out: Minimum Inhibitory Concentration
In short: as §1

[11] = test system: Proteus mirabilis IFO 3849; test: Antibacterial activity, agar-dilution MIC, organism No. 19; conditions: Proteus mirabilis, IFO3849; Organism No. 19, bouillon-agar; read-out: Minimum Inhibitory Concentration
In short: as §1

[12] = test system: Salmonella enteritidis G 14; test: Antibacterial activity, agar-dilution MIC, organism No. 12; conditions: Salmonella enterica, ENTERITIDIS; Organism No. 12, bouillon-agar; read-out: Minimum Inhibitory Concentration
In short: as §1

[13] = test system: Escherichia coli NIHJ-JC-2; test: Antibacterial activity, agar-dilution MIC, organism No. 5; conditions: Escherichia coli, NIHJJC2; Organism No. 5, bouillon-agar; read-out: Minimum Inhibitory Concentration
In short: as §1

[14] = test system: Mycoplasma pneumoniae IID817; test: Antimycoplasmal activity, MIC by phenol red colour change, organism No. 28; conditions: Mycoplasma, IID817; Organism No. 28, PPLO broth + 1% glucose, 37° C.; read-out: Minimum Inhibitory Concentration (MIC)
Experimental: Mycoplasma pneumoniae IID817 was used as the test microorganism in a culture medium prepared by adding 1% of glucose to "PPLO broth (manufactured by Difco Co.) liquid culture medium" at 37° C. with phenol red as an indicator, thereby culturing the test microorganism.

Proteus vulgaris HX-19 = test: Antibacterial activity, agar-dilution MIC, organism No. 21; conditions: Proteus vulgaris, HX19; Organism No. 21, bouillon-agar; read-out: Minimum Inhibitory Concentration
In short: as §1

[15] = test system: Bacillus subtilis ATCC 6633; test: Antibacterial activity, agar-dilution MIC, organism No. 14; conditions: Bacillus subtilis, ATCC6633; Organism No. 14, bouillon-agar; read-out: Minimum Inhibitory Concentration
In short: as §1

[16] = test system: Staphylococcus aureus Terajima; test: Antibacterial activity, agar-dilution MIC, organism No. 2; conditions: Staphylococcus aureus; Organism No. 2, bouillon-agar; read-out: Minimum Inhibitory Concentration
In short: as §1

Enterobacter cloacae 963 = test: Antibacterial activity, agar-dilution MIC, organism No. 24; conditions: Enterobacter cloacae, 963; Organism No. 24, bouillon-agar; read-out: Minimum Inhibitory Concentration
In short: as §1

[17] = test system: Pseudomonas aeruginosa IFO 3445; test: Antibacterial activity, agar-dilution MIC, organism No. 15; conditions: Pseudomonas aeruginosa, IFO3445; Organism No. 15, bouillon-agar; read-out: Minimum Inhibitory Concentration
In short: as §1

[18] = test system: Micrococcus luteus ATCC 9341; test: Antibacterial activity, agar-dilution MIC, organism No. 25; conditions: Micrococcus luteus, ATCC9341; Organism No. 25, bouillon-agar; read-out: Minimum Inhibitory Concentration
In short: as §1

[19] = test system: Salmonella shottmuelleri 8006; test: Antibacterial activity, agar-dilution MIC, organism No. 11; conditions: Salmonella, 8006; Organism No. 11, bouillon-agar; read-out: Minimum Inhibitory Concentration
In short: as §1

[20] = test system: Streptococcus faecium IFO 3826; test: Antibacterial activity, agar-dilution MIC, organism No. 27; conditions: Enterococcus faecium, IFO3826; Organism No. 27, bouillon-agar; read-out: Minimum Inhibitory Concentration
In short: as §1

[21] = test system: Pseudomonas aeruginosa NCTC 10490; test: Antibacterial activity, agar-dilution MIC, organism No. 16; conditions: Pseudomonas aeruginosa, NCTC10490; Organism No. 16, bouillon-agar; read-out: Minimum Inhibitory Concentration
In short: as §1

[22] = test system: Pseudomonas aeruginosa PAO 1; test: Antibacterial activity, agar-dilution MIC, organism No. 17; conditions: Pseudomonas aeruginosa, PAO1; Organism No. 17, bouillon-agar; read-out: Minimum Inhibitory Concentration
In short: as §1

[23] = test system: Escherichia coli K12 C600 IAM 1264; test: Antibacterial activity, agar-dilution MIC, organism No. 6; conditions: Escherichia coli, IAM1264; Organism No. 6, bouillon-agar; read-out: Minimum Inhibitory Concentration
In short: as §1

[24] = test system: Serratia marcescens IAM 1184; test: Antibacterial activity, agar-dilution MIC, organism No. 13; conditions: Serratia marcescens, IAM1184; Organism No. 13, bouillon-agar; read-out: Minimum Inhibitory Concentration
In short: as §1

[25] = test system: Proteus rettgeri IFO 3850; test: Antibacterial activity, agar-dilution MIC, organism No. 22; conditions: Providencia rettgeri, IFO3850; Organism No. 22, bouillon-agar; read-out: Minimum Inhibitory Concentration
In short: as §1

Structure (SMILES)	MIC (Salmonella typhi 901) [µg/mL]	MIC [1] [µg/mL]	MIC [2] [µg/mL]	MIC [3] [µg/mL]	MIC [4] [µg/mL]	MIC [5] [µg/mL]	MIC [6] [µg/mL]	MIC [7] [µg/mL]	MIC [8] [µg/mL]	MIC (Proteus vulgaris OX-19) [µg/mL]	MIC [9] [µg/mL]	MIC [10] [µg/mL]	MIC [11] [µg/mL]	MIC [12] [µg/mL]	MIC [13] [µg/mL]	MIC [14] [µg/mL]	MIC (Proteus vulgaris HX-19) [µg/mL]	MIC [15] [µg/mL]	MIC [16] [µg/mL]	MIC (Enterobacter cloacae 963) [µg/mL]	other results
[C-]#[N+]C12CC3(/C=C/C(=O)Nc4ccc(C(F)(F)F)cc4)OC3C1O2 (stereo not shown) [compound 46]	50 (≈ 149 µM)	> 200	< 0.05	1.56 (≈ 4.64 µM)	0.39 (≈ 1.16 µM)	0.78 (≈ 2.32 µM)	3.13 (≈ 9.31 µM)	50 (≈ 149 µM)	1.56 (≈ 4.64 µM)	0.39 (≈ 1.16 µM)	3.13 (≈ 9.31 µM)	0.1 (≈ 0.297 µM)	> 200	25 (≈ 74.3 µM)	> 200	< 0.2	0.39 (≈ 1.16 µM)	6.25 (≈ 18.6 µM)	0.39 (≈ 1.16 µM)	> 200	MIC [17]: > 200 µg/mL; MIC [18]: < 0.05 µg/mL; MIC [19]: 0.78 µg/mL (≈ 2.32 µM); MIC [20]: > 200 µg/mL; MIC [21]: > 200 µg/mL; MIC [22]: > 200 µg/mL; MIC [23]: > 200 µg/mL; MIC [24]: 200 µg/mL (≈ 595 µM); MIC [25]: 200 µg/mL (≈ 595 µM)
[C-]#[N+]C12CC3(/C=C/C(=O)Nc4cccc([N+](=O)[O-])c4)OC3C1O2 (stereo not shown) [compound 48]	3.13 (≈ 9.99 µM)	> 200	0.1 (≈ 0.319 µM)	3.13 (≈ 9.99 µM)	0.2 (≈ 0.638 µM)	0.39 (≈ 1.24 µM)	0.39 (≈ 1.24 µM)	3.13 (≈ 9.99 µM)	0.2 (≈ 0.638 µM)	< 0.05	3.13 (≈ 9.99 µM)	0.2 (≈ 0.638 µM)	12.5 (≈ 39.9 µM)	3.13 (≈ 9.99 µM)	25 (≈ 79.8 µM)	< 0.2	< 0.05	6.25 (≈ 20 µM)	0.39 (≈ 1.24 µM)	25 (≈ 79.8 µM)	MIC [17]: > 200 µg/mL; MIC [18]: < 0.05 µg/mL; MIC [19]: 0.39 µg/mL (≈ 1.24 µM); MIC [20]: 6.25 µg/mL (≈ 20 µM); MIC [21]: > 200 µg/mL; MIC [22]: > 200 µg/mL; MIC [23]: 25 µg/mL (≈ 79.8 µM); MIC [24]: 6.25 µg/mL (≈ 20 µM); MIC [25]: 1.56 µg/mL (≈ 4.98 µM)
